Among the data in patent US10131679B2, “Substituted dihydropyrrolopyrazole compound” (UBE INDUSTRIES, LTD., priority 2014, dated 2018) are IC50 and inhibition in vivo values, retold here.

Molecules are shown by their SMILES. Bounds are passed on as bounds.

Test [1] deals with Human keratinocytes (NHEK-Neo Pooled). The test can be described thus: Human keratinocyte growth inhibition assay. In kind it is cell-based. The conditions noted are these: 48 h, culture for 2 days, Cell Counting Kit-8. The protocol: Human Keratinocyte Growth Inhibition Assay
The measurement of a human keratinocyte growth inhibitory effect was carried out by modifying the method of Schafer et al. (British Journal of Pharmacology, 159, 842 (2011)).
Human keratinocytes (NHEK-Neo Pooled, manufactured by Lonza Group AG, Cat. No. 00192906) were cultured in KGM-Gold Bullet Kit (manufactured by Lonza Group AG, Cat. No. 00192060) and inoculated at 2.0×10^3 cells/well to a 96-well plate. After overnight culture in a carbon dioxide incubator, a test compound dissolved in DMSO (final DMSO concentration: 0.1%) was added and left standing in a carbon dioxide incubator. After culture for 2 days, the absorbance thereof was measured by using Cell Counting Kit-8 (343-07623 manufactured by Dojindo Laboratories)).
The rate of inhibition of cell growth at each concentration was calculated from the test compound concentration and the absorbance of Cell Counting Kit-8, and the concentration of the test compound necessary for inhibiting 50% of cell growth (IC50 value) was calculated by using EXSUS (version 8.0.0 or version 8.0.1, manufactured by CAC Exicare Corp.).

Test [2] concerns IL-2 production in human peripheral blood mononuclear cell (PBMC). The experiment in a line: Human PBMC CD3/CD28-induced IL-2 production inhibition test. In kind it is cell-based. As to conditions: 48 h, CD3/CD28 stimulation, incubation for 2 days, ELISA. An excerpt: Human Peripheral Blood Mononuclear Cell (PBMC) CD3/CD28-Induced IL-2 Production Inhibition Test
PBMC was separated and collected by using Ficoll-Paque (17-1440-02 manufactured by GE Healthcare Japan Corp.) from blood collected from healthy human adult in the presence of heparin. RPMI1640 medium (manufactured by GIBCO/Thermo Fisher Scientific, Inc., REF. 11875) containing 10% FBS (manufactured by GIBCO/Thermo Fisher Scientific, Inc. REF. 10082) and containing a test compound dissolved in DMSO and 2 μg/mL anti-hCD28 (manufactured by R&D Systems, Inc., Cat. No. MAB342) was added at 100 μL/well to T cell Activation Plate Anti-Human CD3 96-well plate (manufactured by Corning Inc., REF. 354725), and subsequently, a PBMC suspension adjusted such that the number of cells was 2×10^6 cells/mL was added at 100 μL/well (final DMSO concentration: 0.1%). A RPMI1640 medium containing 10% FBS and containing 0.1% DMSO and 2 μg/mL anti-hCD28 was similarly added to wells not supplemented with the test compound. After incubation for 2 days in a carbon dioxide incubator, the culture supernatant was collected. The collected culture supernatant was stored at −20° C. until IL-2 content measurement.
In the measurement of IL-2 content in the culture supernatant, a sandwich ELISA kit Quantikine Human IL-2 (manufactured by R&D Systems, Inc., Cat. No. S2050) was used. The IL-2 content of each sample was calculated from the calibration curve of Standard IL-2 included in the kit. When the amount of IL-2 produced by CD3/CD28 stimulation in the case of the addition of only DMSO was defined as 100%, the rate of inhibition of IL-2 production at each concentration of the test compound was calculated. A test compound concentration inhibiting 50% of IL-2 production was calculated as an IC50 value (nM) from the concentration of the added test compound and the rate of inhibition of IL-2 production by the test compound by using EXSUS (version 8.0.0 or version 8.0.1, manufactured by CAC Exicare Corp.).
A general note: In an ELISA, binding on a coated surface is turned into a signal by an enzyme label.

Test [3] has as its system human large intestine cancer cell line (HCT-116). The test can be described thus: Human large intestine cancer (HCT-116) cell growth inhibition test. In kind it is cell-based. The conditions noted are these: 72 h, HCT-116, culture for 3 days, sulforhodamine B absorbance. In a few lines:
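HCT-116 cells seeded at 1.0×10^3 cells/well in McCoy's 5a with 10% FBS, then exposed to compound (0.1% DMSO final) for 3 days. Growth measured by sulforhodamine B absorbance; IC50 derived from concentration-inhibition data.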

In test [4] the test system is IL-6 production in rat adjuvant arthritis model. The experiment in a line: IL-6 production inhibition test in rat adjuvant arthritis model. In kind it is in vivo, LEW rats. The conditions noted are these: single dose, administration of 10 mg/kg, left ankle, read-out: rate of inhibition of IL-6 production. The protocol:
IL-6 Production Inhibition Test in Rat Adjuvant Arthritis Model
A single-dose drug efficacy test using rat adjuvant arthritis models was carried out by modifying the method of Magari. K et al. (J. Rheumatol. 30 (10), 2193 (2003)).
LEW rats (female, supplied by Charles River Laboratories Japan, Inc.) were used as laboratory animals. An adjuvant prepared from heat-killed bacteria of Mycobacterium butyricum (264010 manufactured by Difco Laboratories Ltd.) and liquid paraffin (manufactured by Wako Pure Chemical Industries, Ltd., Code No. 128-04375) was subcutaneously administered as a phlogogenic material to the right hind leg footpads of the rats under inhalation anesthesia with isoflurane (manufactured by Wako Pure Chemical Industries, Ltd., Code No. 099-06571) to prepare arthritis models. Approximately 2 weeks later, left paw edema was measured with a paw volume meter (model TK-101CMP manufactured by Unicorn Co., Ltd.), and grouping was performed such that the average volume of left paw edema was equal among groups. A test compound or only a solvent was administered, after a certain time, they were sacrificed by exsanguination from the abdomens under isoflurane anesthesia, and the left ankles were collected, chopped, and frozen by using liquid nitrogen. The collected left ankle portions were disrupted in CRYOPress (model CP-100WP manufactured by Microtec Co., Ltd.), then supplemented with a buffer solution, shaken overnight at 4° C., and then centrifuged to collected a supernatant. The preparation of the buffer solution was performed by mixing a Tris buffer solution (pH 7.4), sodium chloride (NaCl), phenyl methyl sulfonyl fluoride (PMSF), Triton X-100, EDTA-free complete tablets (manufactured by F. Hoffmann-La Roche, Ltd., REF. 11 873 580 001), and Otsuka distilled water (manufactured by Otsuka Pharmaceutical Co., Ltd., product No. 1323). IL-6 in the collected supernatant was measured by using a sandwich ELISA kit (manufactured by R&D Systems, Inc., Catalog No. S6050).
The IL-6 content of each sample was calculated from the calibration curve of Standard IL-6 included in the kit. When the amount of IL-6 produced in the solvent administration control group was defined as 100%, the rate of inhibition of IL-6 production (%) at each dose of the test compound was calculated.

By IC50 is commonly meant the concentration that inhibits the measured activity by half. On to `COCC[C@@H](NC(=O)N1Cc2c(NC(=O)C3([Si](C)(C)C)CCC3)n[nH]c2C1(C)C)c1ccccc1` [IV-235, (R)—N-(3-Methoxy-1-phenylpropyl)-6,6-dimethyl-3-[1-(trimethylsilyl)cyclobutanecarboxamido]-4,6-dihydropyrrolo[3,4-c]pyrazole-5(1H)-carboxamide], for which the IC50 in test [1] was ≤ 500 nM; in test [2], ≤ 50 nM; in test [3], ≤ 500 nM. For the same molecule, the inhibition in vivo at 10 mg/kg in test [4] was ≥ 50%.
